Measurements reported in ChEMBL document CHEMBL4138123, “Design, synthesis and biological evaluation of novel pyrazolochalcones as potential modulators of PI3K/Akt/mTOR pathway and inducers of apoptosis in breast cancer cells” (Eur J Med Chem, 2017).

Tests used:
Type in all cases: functional
MDA-MB-468 = assay: Cytotoxicity against human MDA-MB-468 cells assessed as cell growth at 1 uM after 48 hrs by sulforhodamine B assay relative to control; settings: MDA-MB-468, 48 h, read-out: Activity
Malme-3M [1] = assay: Cytotoxicity against human MALME-3M cells assessed as cell growth at 0.1 uM after 48 hrs by sulforhodamine B assay relative to control; settings: read-out: Activity
BT-549 [2] = assay: Cytotoxicity against human BT549 cells assessed as cell growth at 10 uM after 48 hrs by sulforhodamine B assay relative to control; settings: BT-549, 48 h, read-out: Activity
HCT-15 [3] = assay: Cytotoxicity against human HCT15 cells assessed as cell growth at 0.01 uM after 48 hrs by sulforhodamine B assay relative to control; settings: HCT-15, 48 h, read-out: Activity
A498 = assay: Cytotoxicity against human A498 cells assessed as cell growth at 10 uM after 48 hrs by sulforhodamine B assay relative to control; settings: A498, 48 h, read-out: Activity
SK-MEL-5 = assay: Cytotoxicity against human SK-MEL-5 cells assessed as cell growth at 100 uM after 48 hrs by sulforhodamine B assay relative to control; settings: SK-MEL-5, 48 h, read-out: Activity
RXF 393 = assay: Cytotoxicity against human RXF393 cells assessed as growth inhibition after 48 hrs by sulforhodamine B assay; settings: RXF 393, 48 h
HCT-15 [4] = assay: Cytotoxicity against human HCT15 cells assessed as growth inhibition after 48 hrs by sulforhodamine B assay; settings: HCT-15, 48 h
A549 = assay: Cytotoxicity against human A549/ATCC cells assessed as cell growth at 100 uM after 48 hrs by sulforhodamine B assay relative to control; settings: A549, 48 h, read-out: Activity
MOLT-4 [5] = assay: Cytotoxicity against human MOLT4 cells assessed as growth inhibition after 48 hrs by sulforhodamine B assay; settings: MOLT-4, 48 h
SR [6] = assay: Cytotoxicity against human SR cells assessed as growth inhibition after 48 hrs by sulforhodamine B assay
SF-539 = assay: Cytotoxicity against human SF539 cells assessed as cell growth at 0.1 uM after 48 hrs by sulforhodamine B assay relative to control; settings: SF-539, 48 h, read-out: Activity
SR [7] = assay: Cytotoxicity against human SR cells assessed as cell growth at 0.1 uM after 48 hrs by sulforhodamine B assay relative to control; settings: read-out: Activity
UACC-257 [8] = assay: Cytotoxicity against human UACC257 cells assessed as cell growth at 10 uM after 48 hrs by sulforhodamine B assay relative to control; settings: UACC-257, 48 h, read-out: Activity
RPMI-8226 = assay: Cytotoxicity against human RPMI8226 cells assessed as growth inhibition after 48 hrs by sulforhodamine B assay; settings: RPMI-8226, 48 h
HL-60(TB) [9] = assay: Cytotoxicity against human HL-60(TB) cells assessed as cell growth at 0.01 uM after 48 hrs by sulforhodamine B assay relative to control; settings: HL-60, 48 h, read-out: Activity
NCI-H322M = assay: Cytotoxicity against human NCI-H322M cells assessed as cell growth at 1 uM after 48 hrs by sulforhodamine B assay relative to control; settings: read-out: Activity
Malme-3M [10] = assay: Cytotoxicity against human MALME-3M cells assessed as growth inhibition after 48 hrs by sulforhodamine B assay
HT-29 = assay: Cytotoxicity against human HT-29 cells assessed as cell growth at 1 uM after 48 hrs by sulforhodamine B assay relative to control; settings: HT-29, 48 h, read-out: Activity
HCT-116 = assay: Cytotoxicity against human HCT116 cells assessed as cell growth at 100 uM after 48 hrs by sulforhodamine B assay relative to control; settings: HCT-116, 48 h, read-out: Activity
NCI-H460 = assay: Cytotoxicity against human NCI-H460 cells assessed as growth inhibition after 48 hrs by sulforhodamine B assay; settings: NCI-H460, 48 h
SK-OV-3 [11] = assay: Cytotoxicity against human SKOV3 cells assessed as cell growth at 100 uM after 48 hrs by sulforhodamine B assay relative to control; settings: SK-OV-3, 48 h, read-out: Activity
HL-60(TB) [12] = assay: Cytotoxicity against human HL-60(TB) cells assessed as cell growth at 0.1 uM after 48 hrs by sulforhodamine B assay relative to control; settings: HL-60, 48 h, read-out: Activity
MDA-MB-435 = assay: Cytotoxicity against human MDA-MB-435 cells assessed as cell growth at 0.1 uM after 48 hrs by sulforhodamine B assay relative to control; settings: MDA-MB-435, 48 h, read-out: Activity
OVCAR-8 = assay: Cytotoxicity against human OVCAR8 cells assessed as growth inhibition after 48 hrs by sulforhodamine B assay; settings: OVCAR-8, 48 h
U-251 [13] = assay: Cytotoxicity against human U251 cells assessed as cell growth at 10 uM after 48 hrs by sulforhodamine B assay relative to control; settings: U-251, 48 h, read-out: Activity
NCI-H226 = assay: Cytotoxicity against human NCI-H226 cells assessed as cell growth at 0.01 uM after 48 hrs by sulforhodamine B assay relative to control; settings: NCI-H226, 48 h, read-out: Activity
UACC-257 [14] = assay: Cytotoxicity against human UACC257 cells assessed as cell growth at 0.01 uM after 48 hrs by sulforhodamine B assay relative to control; settings: UACC-257, 48 h, read-out: Activity
MOLT-4 [15] = assay: Cytotoxicity against human MOLT4 cells assessed as cell growth at 100 uM after 48 hrs by sulforhodamine B assay relative to control; settings: MOLT-4, 48 h, read-out: Activity
SK-OV-3 [16] = assay: Cytotoxicity against human SKOV3 cells assessed as cell growth at 0.1 uM after 48 hrs by sulforhodamine B assay relative to control; settings: SK-OV-3, 48 h, read-out: Activity
ACHN = assay: Cytotoxicity against human ACHN cells assessed as cell growth at 10 uM after 48 hrs by sulforhodamine B assay relative to control; settings: read-out: Activity
BT-549 [17] = assay: Cytotoxicity against human BT549 cells assessed as cell growth at 0.1 uM after 48 hrs by sulforhodamine B assay relative to control; settings: BT-549, 48 h, read-out: Activity
BT-549 [18] = assay: Cytotoxicity against human BT549 cells assessed as cell growth at 100 uM after 48 hrs by sulforhodamine B assay relative to control; settings: BT-549, 48 h, read-out: Activity
U-251 [19] = assay: Cytotoxicity against human U251 cells assessed as cell growth at 1 uM after 48 hrs by sulforhodamine B assay relative to control; settings: U-251, 48 h, read-out: Activity
CCRF-CEM = assay: Cytotoxicity against human CCRF-CEM cells assessed as cell growth at 1 uM after 48 hrs by sulforhodamine B assay relative to control; settings: read-out: Activity
UO-31 = assay: Cytotoxicity against human UO31 cells assessed as cell growth at 0.01 uM after 48 hrs by sulforhodamine B assay relative to control; settings: UO-31, 48 h, read-out: Activity
[20] = read-out: LC50 (the source's name)

With COc1ccc(-c2cc(/C=C/C(=O)c3ccc(N)cc3)[nH]n2)cc1 the growth at 1 µM (MDA-MB-468) was 29%, the growth at 0.1 µM (Malme-3M [1]) was 86% and the growth at 10 µM (BT-549 [2]) was -37%. The growth at 0.01 µM (HCT-15 [3]) was 97%, the growth at 10 µM (A498) was -39% and the growth at 100 µM (SK-MEL-5) was -100%. For the same compound, the GI50 (RXF 393) was 1.67 µM, the LC50 (concentration killing 50% of cells) (RXF 393) was 15 µM and the TGI (RXF 393) was 4.19 µM. The GI50 (HCT-15 [4]) was 1 µM, the LC50 (HCT-15 [4]) was 34.9 µM and the TGI (HCT-15 [4]) was 3.62 µM. For the same compound, the growth at 100 µM (A549) was -75%, the GI50 (MOLT-4 [5]) was 2.32 µM and the TGI (MOLT-4 [5]) was 9.48 µM. It also gave a CC50 (MOLT-4 [5]; [20]) greater than 100 µM, a GI50 (SR [6]) of 0.79 µM and a TGI (SR [6]) of 6.09 µM. It also gave a CC50 (SR [6]; [20]) of 60.1 µM, a growth at 0.1 µM (SF-539) of 97% and a growth at 0.1 µM (SR [7]) of 98%. The growth at 10 µM (UACC-257 [8]) was -54%, the GI50 (RPMI-8226) was 0.6 µM and the LC50 (RPMI-8226) was 29.4 µM. For the same compound, the TGI (RPMI-8226) was 3.22 µM, the growth at 0.01 µM (HL-60(TB) [9]) was 96% and the growth at 1 µM (NCI-H322M) was 69%. It also gave a GI50 (Malme-3M [10]) of 2.18 µM, an LC50 (Malme-3M [10]) of 28.8 µM and a TGI (Malme-3M [10]) of 6.22 µM. For the same compound, the growth at 1 µM (HT-29) was 97%, the growth at 100 µM (HCT-116) was -15% and the GI50 (NCI-H460) was 2.07 µM. For the same compound, the LC50 (NCI-H460) was 20.9 µM, the TGI (NCI-H460) was 4.95 µM and the growth at 100 µM (SK-OV-3 [11]) was -68%. The growth at 0.1 µM (HL-60(TB) [12]) was 97%, the growth at 0.1 µM (MDA-MB-435) was 103% and the GI50 (OVCAR-8) was 2.44 µM. It also gave an LC50 (OVCAR-8) greater than 100 µM, a TGI (OVCAR-8) of 15.4 µM and a growth at 10 µM (U-251 [13]) of -94%. It also gave a growth at 0.01 µM (NCI-H226) of 102%, a growth at 0.01 µM (UACC-257 [14]) of 96% and a growth at 100 µM (MOLT-4 [15]) of -47%. It also gave a growth at 0.1 µM (SK-OV-3 [16]) of 103%, a growth at 10 µM (ACHN) of 2% and a growth at 0.1 µM (BT-549 [17]) of 96%. The growth at 100 µM (BT-549 [18]) was -61%, the growth at 1 µM (U-251 [19]) was 65% and the growth at 1 µM (CCRF-CEM) was 61%. It also gave a growth at 0.01 µM (UO-31) of 90%.
